Values quoted from earlier work in patent publication US20070253988A1, “Methods for peeling skin” (L'OREAL, priority 2006, published 2007).

Conditions: approximately 20° C., concentration of 0.1 M

Compound	pKa
O=S(=O)(O)CCN(CCO)CCO [N,N-bis[2-hydroxyethyl]-2-aminoethanesulfonic acid]	7.17
O=S(=O)(O)CCN1CCN(CCO)CC1 [N-2-hydroxyethylpiperazine-N′-2-ethanesulfonic acid]	7.55
O=S(=O)(O)CCN1CCN(CCS(=O)(=O)O)CC1 [piperazine-N,N′-bis[2-ethanesulfonic]acid]	6.82
NC(=O)CNCCS(=O)(=O)O [N-(2-acetamido)-2-aminoethanesulfonic acid]	6.88
